Measurements from patent US20120225889A1, “USE OF MACROCYCLIC LACTONE DERIVATIVES FOR THE TREATMENT OF INFLAMMATORY DISORDERS” (PIRAMAL LIFE SCIENCES LIMITED, priority 2010, published 2012).

Experiments:
[1] = system: TNF-α; experiment: Screening in LPS stimulated THP-1 cells: TNF-α; format: cell-based; details: Homo sapiens, 24 h, ELISA
Protocol: (§1) IL-6 (BD Biosciences, USA) production by LPS (Escherchia coli 0127:B8, Sigma, USA) in THP-1 cells (ATCC number: TIB202) was designed as in reference, Journal of Immunology, 151, 5631-5638, (1993), the disclosure of which is incorporated by reference for the teaching of the assay.
(§2) THP-1 cells were cultured in RPMI 1640 culture medium (Gibco BRL, UK) containing 100 U/mL penicillin and […] streptomycin, (100× solution, Sigma, USA) containing 10% FBS (JRH Biosciences, USA). 25,000 cells were seeded per well in 96-well plate (Nunc, USA). The cells were differentiated with PMA (Sigma, USA, prepared as 100 μg/mL stock in RPMI and was diluted to 5 ng/mL). The test compound (prepared as 20 mM stock in DMSO and diluted with DMSO to achieve the following final concentrations in the assay: 100, 10, 1, 0.1, 0.01, 0.001 and 0.0001 μM) or vehicle (0.5% DMSO) were added to the cells and the cells were incubated for 30 min at 37° C. LPS (Sigma, USA, prepared as 1 mg/mL stock in PBS) was added to achieve a final concentration of 1 μg/mL. Plates were incubated at 37° C. for 24 h at 5% CO2. Supernatants were harvested, and assayed for TNF-α and IL-6 by ELISA as described by the manufacturer (BD Biosciences, USA). Percent inhibition of cytokine release compared to the control was calculated. The IC50 values were calculated by a nonlinear regression method.

[2] = system: TNF-α; experiment: Cytokine release assay in hPBMCs: TNF-α; format: cell-based; details: Homo sapiens
Protocol: (§3) hPBMCs were obtained from healthy donors by centrifugation of heparinized venous blood over Ficoll/Hypaque solution (Histopaque-1077, Sigma, USA). Isolated hPBMCs were suspended in RPMI 1640 culture medium supplemented with 10% FBS and seeded at a density of 50,000 cells/well in a 96-well plate (Nunc, USA). The cells were incubated at 37° C., 5% CO2 for a period of 24 h. These cells were used for the lymphocyte proliferation as well as cytokine release assay.
(§4) The plated cells were treated with different concentrations of the test compound (prepared as mM stock in DMSO and diluted with DMSO to achieve the following final concentrations in the assay: 100, 10, 1, 0.1, 0.01, 0.001, 0.0001, 0.00001 and 0.000001 μM) and incubated for 30 min. The cells were then stimulated with PHA (prepared as 1 mg/mL stock in RPMI 1640 culture medium and used at a final concentration of 5 μg/mL). FK506 was used as a standard. The plates were incubated at 37° C., 5% CO2 for 48 h. The cytokines in the supernatant collected were detected using ELISA kit (BD biosciences, USA). The cytokines evaluated in the assay were TNF-α, IL-2, IL-6, and IFN-γ.

[3] = system: IL-6; experiment: Cytokine release assay in hPBMCs: IL-6; format: cell-based; details: Homo sapiens
Protocol: as §3, §4

[4] = system: IL-6; experiment: Screening in LPS stimulated THP-1 cells: IL-6; format: cell-based; details: Homo sapiens, 24 h, ELISA
Protocol: as §1, §2

[5] = system: BCL2; experiment: Gene expression profile using RTQ-PCR: BCL2; format: cell-based, human; details: 3 μM, ± SE, N = 3
Protocol: (§5) The effect of the compound of example 7 was measured in stimulated untreated cells from the monocytic cell line (THP-1), human monocytes and synovial cells from rheumatoid arthritis patient. The effect of the compound in the THP-1 cell line was measured in terms of gene expression and was expressed as fold changes as compared to the cell stimulated control with no drug treatment.
(§6) THP-1 cells, human monocytes and synovial cells were treated with compound of example 7 or vehicle (0.5% DMSO). Total RNA isolation using a commercial RNA extraction kit (Qiagen Corporation, Germany) The first-strand cDNA was synthesized from total RNA using first strand cDNA synthesis kit from Invitrogen Corporation (California, USA). This was followed by real time quantitative polymerase chain reaction (RTQ PCR) using gene specific primers and standard thermal program of initial denaturation at 95° C. for 5 min and cycles of 95° C. for 10 seconds, followed by 60° C. for 30 seconds (Realplex PCR machine from Eppendorf, Germany). Quantitative measurement of products made during PCR cycles was normalized against a housekeeping gene (Actin) and was used to measure the gene expression as fold changes as compared to respective control.

[6] = system: CEBPδ; experiment: Gene expression profile using RTQ-PCR: CEBPδ; format: cell-based, human; details: 3 μM
Protocol: as §5, §6

[7] = system: CEBPβ; experiment: Gene expression profile using RTQ-PCR: CEBPβ; format: cell-based, human; details: 3 μM
Protocol: as §5, §6

[8] = Human monocytes, 3 h, ± SE, N = 3

C/C=C/C(O)C(C)/C=C/C(=N\O)C(C)C(O)C(C)C1OC(=O)/C(OC)=C/C(C)=C/C(C)C(O)C(CC)C(O)C(C)C/C(C)=C/C=C/C1OC (centres unmarked) [Compound of example 7, (3Z,5E,13E,15E)-18-((5Z,6E,10E)-3,9-Dihydroxy-5-(hydroxymino)-4,8-dimethyldodeca-6,10-dien-2-yl)-9-ethyl-8,10-dihydroxy-3,17-dimethoxy-5,7,11,13-tetramethyl oxacyclooctadeca-3,5,13,15-tetraen-2-one]
IC50 [1]: 18000 nM
IC50 ([2]; Table 3: PHA-PMA induced hPBMC's, 48 h, read-out: TNF-α IC50): 0.02 µM
IC50 ([2]; Table 4: mitogen stimulated production from hPBMC's, read-out: TNF-α (IC50 μM)): 0.07 µM
IC50 ([3]; Table 3: PHA-PMA induced hPBMC's, 48 h, read-out: IL-6 IC50): 10 nM
IC50 ([3]; Table 4: mitogen stimulated production from hPBMC's, read-out: IL-6 (IC50 μM)): 0.007 nM
IC50 [4]: 40 nM
BCL2 gene expression ([5]; Human monocytes, 3 h): −1.7 + 0.4 log fold change
BCL2 gene expression ([5]; THP-1 cells, 12 h): −1.3 ± 0.8 log fold change
CEBPδ gene expression [6, 8]: −1.4 + 0.4 log fold change
CEBPδ gene expression ([6]; Synovial cells, 12 h, N = 1): −1.1 log fold change
CEBPδ gene expression ([6]; THP-1 cells, 12 h, ± SE, N = 3): −1.8 + 1.0 log fold change
CEBPβ gene expression [7, 8]: −2.2 + 0.3 log fold change
CEBPβ gene expression ([7]; Synovial cells, 12 h, N = 1): 0.4 log fold change
CEBPβ gene expression ([7]; THP-1 cells, 12 h, ± SE, N = 3): −0.2 + 0.5 log fold change
